In PubChem BioAssay AID248 (DTP/NCI, 2004):
Several values for one entry are separate records, joined by “and”; a condition that tells them apart may be missing. Equal values may be shown once. Inconclusive results and toxic doses are left out. Rule as the data show it: active = T/C of 150% or more; inactive = T/C below 125%.

Test system: L1210 leukemia ip in BDF1 mice, survival T/C
Experiment: NCI In Vivo Anticancer Drug Screen. Data for tumor model L1210 Leukemia (intraperitoneal) in B6D2F1 (BDF1) mice
Conditions: endpoint: mean survival time, higher = longer survival
Procedure, shortened: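 Each compound was tested against a transplantable tumor grown in mice. The endpoint was survival, with treated animals benchmarked against vehicle controls as a simple ratio.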

[1] = dose: 100.0 mg/kg/injection, schedule: Q04DX003 (ip), vehicle: Klucel (hydroxypropylcellulose) (HPC)
[2] = dose: 200.0 mg/kg/injection, schedule: Q04DX003 (ip), vehicle: Klucel (hydroxypropylcellulose) (HPC)
[3] = dose: 200.0 mg/kg/injection, schedule: Q01DX001 (ip), vehicle: saline
[4] = dose: 400.0 mg/kg/injection, schedule: Q01DX001 (ip), vehicle: saline
[5] = dose: 25.0 mg/kg/injection, schedule: Q01DX009 (ip), vehicle: saline
[6] = dose: 50.0 mg/kg/injection, schedule: Q01DX009 (ip), vehicle: saline
[7] = dose: 100.0 mg/kg/injection, schedule: Q01DX009 (ip), vehicle: Klucel (hydroxypropylcellulose) (HPC)
[8] = dose: 200.0 mg/kg/injection, schedule: Q01DX009 (ip), vehicle: Klucel (hydroxypropylcellulose) (HPC)
[9] = dose: 400.0 mg/kg/injection, schedule: Q01DX009 (ip), vehicle: Klucel (hydroxypropylcellulose) (HPC)
[10] = dose: 100.0 mg/kg/injection, schedule: Q01DX001 (ip), vehicle: carboxymethylcellulose (CMC)
[11] = dose: 200.0 mg/kg/injection, schedule: Q01DX001 (ip), vehicle: carboxymethylcellulose (CMC)
[12] = dose: 400.0 mg/kg/injection, schedule: Q01DX001 (ip), vehicle: carboxymethylcellulose (CMC)
[13] = dose: 100.0 mg/kg/injection, schedule: Q04DX003 (ip), vehicle: saline with Tween-80
[14] = dose: 100.0 mg/kg/injection, schedule: Q01DX009 (ip), vehicle: saline with Tween-80
[15] = dose: 200.0 mg/kg/injection, schedule: Q01DX009 (ip), vehicle: saline with Tween-80
[16] = dose: 200.0 mg/kg/injection, schedule: Q04DX003 (ip), vehicle: saline with Tween-80
[17] = dose: 400.0 mg/kg/injection, schedule: Q04DX003 (ip), vehicle: saline with Tween-80
[18] = dose: 50.0 mg/kg/injection, schedule: Q01DX009 (ip), vehicle: saline with Tween-80

Measured: T/C

CC1(/C=N\NC(N)=O)CC2C=CC1C2 (configuration not stated)
inactive: [1] 104 % of control | [2] 98 % of control

C=CCc1ccc(C)c(C)c1O
inactive: dose: 100.0 mg/kg/injection, schedule: Q01DX009 (sc), vehicle: olive oil, sesame oil, peanut oil 101 % of control | dose: 100.0 mg/kg/injection, schedule: Q04DX003 (sc), vehicle: olive oil, sesame oil, peanut oil 99 % of control | dose: 200.0 mg/kg/injection, schedule: Q01DX009 (sc), vehicle: olive oil, sesame oil, peanut oil 101 % of control | dose: 200.0 mg/kg/injection, schedule: Q04DX003 (sc), vehicle: olive oil, sesame oil, peanut oil 97 % of control | dose: 400.0 mg/kg/injection, schedule: Q01DX009 (sc), vehicle: olive oil, sesame oil, peanut oil 101 % of control | dose: 400.0 mg/kg/injection, schedule: Q04DX003 (sc), vehicle: olive oil, sesame oil, peanut oil 91 % of control

CCN(CC)CCNC(=O)c1c2c(nc3ccccc13)CCCC2
inactive: dose: 100.0 mg/kg/injection, schedule: Q01DX001 (ip), vehicle: saline 103 % of control | [3] 102 % of control | [4] 98 % of control

O=C(NC/C=C/Br)Nc1c2ccccc2nc2ccccc12
inactive: dose: 12.5 mg/kg/injection, schedule: Q01DX009 (ip), vehicle: saline 102 % of control | [5] 102 % of control | [6] 109 % of control

COc1ccc(C2ON2C2CCCCC2)cc1OC (configuration not stated)
inactive: [3] 106 % of control | [4] 100 % of control

CSc1ccc(NC(N)=O)cc1
inactive: dose: 100.0 mg/kg/injection, schedule: Q04DX002 (ip), vehicle: Klucel (hydroxypropylcellulose) (HPC) 103 % of control | dose: 200.0 mg/kg/injection, schedule: Q04DX002 (ip), vehicle: Klucel (hydroxypropylcellulose) (HPC) 120 % of control | dose: 400.0 mg/kg/injection, schedule: Q04DX002 (ip), vehicle: Klucel (hydroxypropylcellulose) (HPC) 95 % of control

O=C(OCC(COC(=O)c1ccccc1)(COC(=O)c1ccccc1)COC(=O)c1ccccc1)c1ccccc1
inactive: [7] 91 % of control | [1] 91 % of control | [8] 105 % of control | [2] 99 % of control | [9] 96 % of control | dose: 400.0 mg/kg/injection, schedule: Q04DX003 (ip), vehicle: Klucel (hydroxypropylcellulose) (HPC) 98 % of control

CCC(O)c1ccc2ccccc2c1 (configuration not stated)
inactive: [10] 98 % of control | [11] 98 % of control | [12] 93 % of control

CCCCCCCCCCCC(=O)[O][Pb]([CH2]C)([CH2]C)[CH2]C
inactive: dose: 6.25 mg/kg/injection, schedule: Q04DX003 (ip), vehicle: saline with Tween-80 101 % of control | dose: 12.5 mg/kg/injection, schedule: Q04DX003 (ip), vehicle: saline with Tween-80 102 % of control | [13] 106 % of control

CCOC(=O)/C=C(\C)C(C)=O
inactive: [14] 92 % of control | [13] 98 % of control | [15] 96 % of control | [16] 103 % of control | dose: 400.0 mg/kg/injection, schedule: Q01DX009 (ip), vehicle: saline with Tween-80 92 % of control | [17] 104 % of control

N#CSCCC(c1ccccc1)(c1ccccc1)c1ccccc1
inactive: [18] 90 % of control | [14] 90 % of control | [15] 90 % of control

Nc1ccc(Cl)cc1
inactive: [10] 98 % of control | [11] 101 % of control | [12] 110 % of control

O=C(O)c1ccsc1Cc1ccsc1
inactive: [18] 89 % of control | [14] 96 % of control | [15] 86 % of control

COC(=O)COc1ccc(Cl)cc1C(=O)O
inactive: [13] 94 % of control | [16] 92 % of control

CCOC(=O)c1ccc(Nc2nnc(-c3ccccc3Cl)s2)cc1
inactive: dose: 25.0 mg/kg/injection, schedule: Q04DX002 (ip), vehicle: gum acacia 98 % of control | dose: 100.0 mg/kg/injection, schedule: Q04DX002 (ip), vehicle: gum acacia 88 % of control | dose: 200.0 mg/kg/injection, schedule: Q04DX002 (ip), vehicle: gum acacia 102 % of control | dose: 400.0 mg/kg/injection, schedule: Q04DX002 (ip), vehicle: gum acacia 94 % of control

O=C(Cl)C(c1ccccc1)C1(C(Cl)(Cl)Cl)CCCCC1 (configuration not stated)
inactive: dose: 55.0 mg/kg/injection, schedule: Q01DX Z (ip), vehicle: methylcellulose (MC) 110 % of control | dose: 83.0 mg/kg/injection, schedule: Q01DX Z (ip), vehicle: methylcellulose (MC) 104 % of control | dose: 125.0 mg/kg/injection, schedule: Q01DX Z (ip), vehicle: methylcellulose (MC) 98 % of control

c1ccc(-c2cscc2-c2ccccc2)cc1
inactive: [5] 105 % of control | [6] 96 % of control | dose: 100.0 mg/kg/injection, schedule: Q01DX009 (ip), vehicle: saline 100 % of control | dose: 200.0 mg/kg/injection, schedule: Q01DX009 (ip), vehicle: saline 97 % of control | dose: 400.0 mg/kg/injection, schedule: Q01DX009 (ip), vehicle: saline 98 % of control

CCSc1cccc(C(=O)O)c1
inactive: [10] 102 % of control | [11] 94 % of control | [12] 100 % of control

CC1OC1CO (configuration not stated)
inactive: [13] 96 % of control | [16] 101 % of control | [17] 89 % of control

CC(Br)C(=O)Nc1ccc(C(=O)O)c(O)c1 (configuration not stated)
inactive: dose: 25.0 mg/kg/injection, schedule: Q01DX009 (ip), vehicle: saline with Tween-80 112 % of control | [18] 98 % of control | [14] 100 % of control and 107 % of control

COc1cc([N+](=O)[O-])ccc1NC(=O)Nc1cc(Cl)c(Cl)cc1C
inactive: [7] 94 % of control | [8] 105 % of control | [9] 91 % of control
